Experimental findings from ChEMBL document CHEMBL1201862, “PubChem BioAssay data set” (2004) are described below.

Assay [1] deals with Sphingosine 1-phosphate receptor 4 (Homo sapiens, UniProt O95977). Description: Late-stage fluorescence dose response cell-based assay to identify agonists of the Sphingosine 1-Phosphate Receptor 4 (S1P4): purchased compounds EC50. [Related pubchem assays (depositor defined):AID1509, AID1523, AID1563, AID1686, AID1701, AID1801]. Type of assay: functional.
The target in assay [2] is T1, Mannose-6-phosphate isomerase (Homo sapiens, UniProt P34949).
T1 sequence (P34949 whole entry): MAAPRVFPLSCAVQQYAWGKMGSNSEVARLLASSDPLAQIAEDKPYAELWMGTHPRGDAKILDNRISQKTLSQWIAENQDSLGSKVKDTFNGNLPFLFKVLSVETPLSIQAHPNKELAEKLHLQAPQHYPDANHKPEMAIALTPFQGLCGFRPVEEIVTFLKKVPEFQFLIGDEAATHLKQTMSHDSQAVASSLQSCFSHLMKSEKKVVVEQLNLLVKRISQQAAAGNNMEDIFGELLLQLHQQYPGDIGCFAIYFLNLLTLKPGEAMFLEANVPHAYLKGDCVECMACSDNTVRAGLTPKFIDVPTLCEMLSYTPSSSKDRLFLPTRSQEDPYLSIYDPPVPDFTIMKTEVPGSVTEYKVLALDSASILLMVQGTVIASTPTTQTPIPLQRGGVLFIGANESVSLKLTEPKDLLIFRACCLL
Description: phosphomannose isomerase inhibition – biochemical, fluorescence intensity, confirmation (AID 1535).

In assay [3] the target is Dual specificity protein phosphatase 3 (Homo sapiens, UniProt P51452). Description: SAR VHR1 Fluorescent Assay for In Vitro dose response studies Set 2. [Related pubchem assays (depositor defined):AID1654, AID1661, AID1878]. The assay is classed as functional.
Assay [4] has as its target T1, Mannose-6-phosphate isomerase. Description: MPI enzyme activity inhibition – biochemical, fluorescence intensity, coupled assay, primary screen (AID 1209).
Assay [5] has as its target T2, Tyrosine-protein phosphatase non-receptor type 7 (Homo sapiens, UniProt P35236).
T2 sequence (P35236 whole entry): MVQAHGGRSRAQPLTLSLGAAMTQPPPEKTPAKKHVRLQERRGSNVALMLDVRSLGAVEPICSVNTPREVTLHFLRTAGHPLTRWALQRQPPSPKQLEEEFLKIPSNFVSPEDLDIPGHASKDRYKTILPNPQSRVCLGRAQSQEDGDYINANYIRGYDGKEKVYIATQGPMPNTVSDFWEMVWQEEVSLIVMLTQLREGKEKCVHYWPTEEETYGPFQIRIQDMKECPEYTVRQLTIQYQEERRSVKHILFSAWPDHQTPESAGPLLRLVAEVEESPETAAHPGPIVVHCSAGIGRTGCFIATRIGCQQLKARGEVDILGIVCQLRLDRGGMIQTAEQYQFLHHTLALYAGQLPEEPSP
Description: SAR analysis of chemical inhibitors of HePTP using a Fluorescent assay - Set 2. [Related pubchem assays (depositor defined):AID1059, AID1077, AID1661, AID2085, AID521]. The assay is classed as functional.

Assay [6] addresses T3, Phosphomannomutase 2 (Homo sapiens, UniProt O15305).
T3 sequence (O15305 whole entry): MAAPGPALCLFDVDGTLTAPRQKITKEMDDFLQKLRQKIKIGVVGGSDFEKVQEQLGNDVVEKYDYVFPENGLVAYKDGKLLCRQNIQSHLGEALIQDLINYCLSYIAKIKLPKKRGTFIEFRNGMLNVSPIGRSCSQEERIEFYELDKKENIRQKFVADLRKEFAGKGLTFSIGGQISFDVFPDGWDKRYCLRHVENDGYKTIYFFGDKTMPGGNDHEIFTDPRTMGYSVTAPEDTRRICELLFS
As to the kind of experiment: Counter screen SAR assay for PMM2 inhibitors via a fluorescence intensity assay. [Related pubchem assays (depositor defined):AID1545, AID1574]. A general note: A counterscreen serves to expose hits that act by an unwanted route or on another target.

The target of assay [7] is T4, Runt-related transcription factor 1/Core-binding factor subunit beta (Homo sapiens, UniProt Q01196+Q13951). Description: Runt domain/CBFb-SMMHC interaction disruptors – biochemical, TR-FRET (AID 1438). The assay is classed as protein assay. (Time-resolved FRET reads energy transfer from a long-lived donor to a nearby acceptor.)
In assay [8] the target is T4, Runt-related transcription factor 1/Core-binding factor subunit beta. As to the kind of experiment: disruptors of Runt domain/CBFb-SMMHC interaction – biochemical, FRET, Cerulean-Runt, Venus-CBFb-SMMHC, uHTS, […] (AID 1434). Type of assay: protein assay.
For assay [9] the target is unchanged. Description: Confirmation of compounds inhibiting the binding between the RUNX1 Runt domain and CBFb-SMMHC via a fluorescence resonance energy transfer (FRET) assay. [Related pubchem assays (depositor defined):AID1434, AID1438, AID1496, AID1550, AID1645]. Type of assay: protein assay.
Assay [10] addresses T5, Kappa-type opioid receptor (Homo sapiens, UniProt P41145). As to the kind of experiment: SAR analysis of small molecule antagonists of the kappa opioid receptor via a luminescent beta-arrestin assay - Set 3. [Related pubchem assays (depositor defined):AID1777, AID1778, AID1785, AID1786, AID1966, AID2133, AID2136, AID2285, AID2495]. The assay is classed as functional.
Assay [11] concerns the target Delta-type opioid receptor (Homo sapiens, UniProt P41143). Description: SAR Analysis of Antagonists of the DOR Receptor using an Image-Based Assay - Set 3. [Related pubchem assays (depositor defined):AID1777, AID1785]. Type of assay: functional.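 Also: U2OS cells expressing DOR1 and beta-arrestin GFP stimulated with 100 nM SNC80; imaging of GFP-tagged beta-arrestin moving into spots after receptor activation.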
In assay [12] the target is Mu-type opioid receptor (Homo sapiens, UniProt P35372). As to the kind of experiment: SAR Analysis of Antagonists of the MOR Receptor using an Image-Based Assay - Set 3. [Related pubchem assays (depositor defined):AID1777, AID1785, AID1786, AID1966, AID2133, AID2136, AID2284, AID2285, AID2420]. Type of assay: functional.
Assay [13] has as its target T5, Kappa-type opioid receptor. As to the kind of experiment: SAR analysis of Antagonists of the Kappa Opioid Receptor (KOR) using an Image-Based Assay - Set 3. [Related pubchem assays (depositor defined):AID1777, AID1785]. The assay is classed as functional.
The nature of assay [14]: cells. Type of assay: functional.
The nature of assay [15]: Vero E6 cell cytotoxicity, dose response, cytotoxicity control for non-replicating M. tuberculosis project, secondary assay (AID 492998). The assay is classed as functional, VeroE6. To be noted: Vero C1008.
A short description of assay [16]: microbe, parasite or virus in culture. Type of assay: functional. The note with it: Mycobacterium tuberculosis.
In assay [17] the target is T6, Zinc finger protein mex-5 (Caenorhabditis elegans, UniProt Q9XUB2).
T6 sequence (Q9XUB2 whole entry): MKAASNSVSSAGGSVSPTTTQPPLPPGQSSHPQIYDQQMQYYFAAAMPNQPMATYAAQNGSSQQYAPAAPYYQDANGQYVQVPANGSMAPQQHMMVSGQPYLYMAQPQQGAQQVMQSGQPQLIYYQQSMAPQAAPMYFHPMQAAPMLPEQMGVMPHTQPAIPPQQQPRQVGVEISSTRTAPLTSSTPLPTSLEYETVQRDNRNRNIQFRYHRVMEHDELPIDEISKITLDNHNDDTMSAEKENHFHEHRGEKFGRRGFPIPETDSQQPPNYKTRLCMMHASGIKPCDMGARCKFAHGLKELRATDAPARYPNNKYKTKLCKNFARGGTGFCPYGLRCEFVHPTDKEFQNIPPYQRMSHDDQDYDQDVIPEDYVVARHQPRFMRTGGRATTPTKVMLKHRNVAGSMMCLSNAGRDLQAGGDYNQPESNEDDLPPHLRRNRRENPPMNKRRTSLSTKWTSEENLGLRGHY
Description: potency of MEX-5 RNA-binding blockers – biochemical, C. elegans, fluorescence polarization, dose response (AID 1960). (In fluorescence polarisation assays a small probe gives low polarisation when free and higher when bound to something large.)

For assay [18], the target named is Beta-lactamase (Pseudomonas aeruginosa, UniProt Q79MP6).
Assay [19] has as its target T7, RNA-binding protein pos-1 (Caenorhabditis elegans, UniProt G5EF15).
T7 sequence (G5EF15 whole entry): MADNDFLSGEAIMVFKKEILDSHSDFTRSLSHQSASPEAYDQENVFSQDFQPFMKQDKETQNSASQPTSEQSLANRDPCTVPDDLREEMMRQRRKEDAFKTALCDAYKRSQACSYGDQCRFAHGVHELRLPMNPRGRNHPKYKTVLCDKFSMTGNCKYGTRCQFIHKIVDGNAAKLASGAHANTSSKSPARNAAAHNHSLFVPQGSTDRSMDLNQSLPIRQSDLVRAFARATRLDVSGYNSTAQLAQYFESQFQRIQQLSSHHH
Description: disruptors of C. elegans POS-1 RNA interaction – biochemical, fluorescence polarization, dose response (AID 1964).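 Also: purified POS-1 fused to maltose binding protein made in E. coli; potency of compounds blocking POS-1 binding to fluorescent RNA.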

The target in assay [20] is Ion channel NompC (Danio rerio, UniProt Q7T1G6). As to the kind of experiment: Dose response cell-based high-throughput screening assay for agonists of the transient receptor potential channel N1 (TRPN1). [Related pubchem assays (depositor defined):AID1424, AID1448]. The assay is classed as functional.
For assay [21], the target named is Beta-lactamase (Salmonella choleraesuis (strain SC-B67), UniProt Q5J463).
Assay [22] addresses Mucolipin-3 (Homo sapiens, UniProt Q8TDD5). Description: Fluorescence counterscreen assay for […] agonists: dose response cell-based high-throughput screening assay to identify agonists of the transient receptor potential channel ML3 (TRPML3). [Related pubchem assays: 1424, 1448 ]. Type of assay: functional.
Assay [23] has as its target Peroxisome proliferator-activated receptor gamma (Homo sapiens, UniProt P37231). Description: PPARg transcriptional activation, reporter cells – cell-based, luminescence, assay provider, dose response (AID 504447). Type of assay: functional.
The target of assay [24] is T8, Cannabinoid receptor 2 (Homo sapiens, UniProt P34972). As to the kind of experiment: SAR analysis of agonists of the Cannabinoid Receptor 2 using an Image-Based Assay - Set 3. [Related pubchem assays (depositor defined):AID2013, AID2026]. The assay is classed as functional.
Assay [25] has as its target G-protein coupled receptor 55 (Homo sapiens, UniProt Q9Y2T6). As to the kind of experiment: SAR Analysis of Selective Antagonists of GPR55 using an Image-Based Assay - Set 4. [Related pubchem assays (depositor defined):AID2013, AID2026]. The assay is classed as functional.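 Also: antagonism of response to 5 µM lysophosphatidylinositol agonist.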
Assay [26] deals with T8, Cannabinoid receptor 2. As to the kind of experiment: SAR analysis of antagonists of the Cannabinoid Receptor 2 using an Image-Based Assay - Set 3. [Related pubchem assays (depositor defined):AID2013, AID2026]. The assay is classed as functional.
The target in assay [27] is T9, G-protein coupled receptor 35 (Homo sapiens, UniProt Q9HC97). As to the kind of experiment: SAR analysis of Antagonists of the GPR35 Receptor using an Image-Based Assay - Set 6. [Related pubchem assays (depositor defined):AID2013, AID2026]. Type of assay: functional.
Assay [28] has as its target T10, Cannabinoid receptor 1 (Homo sapiens, UniProt P21554). Description: SAR analysis of agonists of the Cannabinoid Receptor 1 using an Image-Based Assay - Set 4. [Related pubchem assays (depositor defined):AID2013, AID2026]. The assay is classed as functional.
Assay [29] concerns the target T10, Cannabinoid receptor 1. As to the kind of experiment: SAR analysis of antagonists of the Cannabinoid Receptor 1 using an Image-Based Assay - Set 4. [Related pubchem assays (depositor defined):AID2013, AID2026]. The assay is classed as functional.
For assay [30], the target named is T9, G-protein coupled receptor 35. As to the kind of experiment: SAR analysis of Agonists of the GPR35 Receptor using an Image-Based Assay - Set 4. [Related pubchem assays (depositor defined):AID2013, AID2026]. Type of assay: functional.

Each structure is given as a SMILES string. Calls of active or inactive are those of the source. Some results are limits rather than exact numbers.

T4 sequence (Q01196 whole entry, the tested form may be a part): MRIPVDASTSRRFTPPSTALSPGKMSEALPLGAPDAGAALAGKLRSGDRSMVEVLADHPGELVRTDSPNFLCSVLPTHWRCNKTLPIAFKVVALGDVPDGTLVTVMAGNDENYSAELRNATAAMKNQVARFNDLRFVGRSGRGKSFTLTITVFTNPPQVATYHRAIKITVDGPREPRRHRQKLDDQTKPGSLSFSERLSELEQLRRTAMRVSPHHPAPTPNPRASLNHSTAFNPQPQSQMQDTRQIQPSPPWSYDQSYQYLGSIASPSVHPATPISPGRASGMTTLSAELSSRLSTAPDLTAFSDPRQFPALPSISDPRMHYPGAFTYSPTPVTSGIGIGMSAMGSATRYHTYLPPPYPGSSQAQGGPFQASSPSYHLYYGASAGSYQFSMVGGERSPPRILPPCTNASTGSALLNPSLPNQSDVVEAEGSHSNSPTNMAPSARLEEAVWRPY
T4 sequence (Q13951 whole entry, the tested form may be a part): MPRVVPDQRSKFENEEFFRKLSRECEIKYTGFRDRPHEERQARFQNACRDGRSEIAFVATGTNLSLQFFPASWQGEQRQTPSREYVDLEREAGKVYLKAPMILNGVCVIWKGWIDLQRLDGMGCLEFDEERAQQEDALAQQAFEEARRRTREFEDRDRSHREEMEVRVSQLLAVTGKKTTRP
T5 sequence (P41145 whole entry): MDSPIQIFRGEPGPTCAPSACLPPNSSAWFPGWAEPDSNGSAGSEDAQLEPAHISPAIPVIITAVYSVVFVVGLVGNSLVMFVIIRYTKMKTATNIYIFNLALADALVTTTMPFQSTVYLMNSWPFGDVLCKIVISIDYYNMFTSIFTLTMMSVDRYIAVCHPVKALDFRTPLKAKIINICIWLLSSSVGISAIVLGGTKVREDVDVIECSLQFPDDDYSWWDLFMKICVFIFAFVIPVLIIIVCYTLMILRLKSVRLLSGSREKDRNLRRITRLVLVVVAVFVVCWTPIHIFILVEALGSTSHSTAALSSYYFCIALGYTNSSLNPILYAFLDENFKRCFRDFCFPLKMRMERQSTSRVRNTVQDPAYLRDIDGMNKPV
T8 sequence (P34972 whole entry): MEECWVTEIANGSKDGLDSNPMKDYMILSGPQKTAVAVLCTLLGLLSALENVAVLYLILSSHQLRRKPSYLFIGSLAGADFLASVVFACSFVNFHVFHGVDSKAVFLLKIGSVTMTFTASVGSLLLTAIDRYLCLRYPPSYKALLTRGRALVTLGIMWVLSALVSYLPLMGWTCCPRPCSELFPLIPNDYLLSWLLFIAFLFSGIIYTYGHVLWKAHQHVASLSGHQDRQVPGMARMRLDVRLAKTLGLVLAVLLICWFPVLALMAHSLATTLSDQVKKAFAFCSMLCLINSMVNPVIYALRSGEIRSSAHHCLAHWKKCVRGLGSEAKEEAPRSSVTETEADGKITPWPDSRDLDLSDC
T9 sequence (Q9HC97 whole entry): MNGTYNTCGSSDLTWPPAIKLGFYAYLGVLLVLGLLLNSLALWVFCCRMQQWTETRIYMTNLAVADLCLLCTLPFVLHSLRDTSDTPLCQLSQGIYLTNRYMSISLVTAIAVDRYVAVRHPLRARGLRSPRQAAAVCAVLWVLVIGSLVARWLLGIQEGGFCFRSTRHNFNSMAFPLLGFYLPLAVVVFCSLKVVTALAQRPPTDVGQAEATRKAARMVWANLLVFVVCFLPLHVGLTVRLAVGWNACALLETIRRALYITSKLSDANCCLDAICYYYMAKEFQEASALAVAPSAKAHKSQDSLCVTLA
T10 sequence (P21554 whole entry): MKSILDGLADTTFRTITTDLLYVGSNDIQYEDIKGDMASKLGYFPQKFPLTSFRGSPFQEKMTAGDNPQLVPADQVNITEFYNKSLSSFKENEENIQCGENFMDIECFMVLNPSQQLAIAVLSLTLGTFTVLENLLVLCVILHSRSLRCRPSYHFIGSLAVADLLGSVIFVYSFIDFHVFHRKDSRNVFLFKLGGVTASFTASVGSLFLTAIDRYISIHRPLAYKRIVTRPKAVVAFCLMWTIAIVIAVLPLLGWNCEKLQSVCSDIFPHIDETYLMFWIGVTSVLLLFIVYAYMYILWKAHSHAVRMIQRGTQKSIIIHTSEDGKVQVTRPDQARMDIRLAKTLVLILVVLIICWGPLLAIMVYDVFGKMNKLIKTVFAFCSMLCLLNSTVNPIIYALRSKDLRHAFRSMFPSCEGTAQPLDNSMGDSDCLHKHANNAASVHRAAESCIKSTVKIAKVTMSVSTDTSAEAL
Delta-type opioid receptor, sequence (P41143 whole entry): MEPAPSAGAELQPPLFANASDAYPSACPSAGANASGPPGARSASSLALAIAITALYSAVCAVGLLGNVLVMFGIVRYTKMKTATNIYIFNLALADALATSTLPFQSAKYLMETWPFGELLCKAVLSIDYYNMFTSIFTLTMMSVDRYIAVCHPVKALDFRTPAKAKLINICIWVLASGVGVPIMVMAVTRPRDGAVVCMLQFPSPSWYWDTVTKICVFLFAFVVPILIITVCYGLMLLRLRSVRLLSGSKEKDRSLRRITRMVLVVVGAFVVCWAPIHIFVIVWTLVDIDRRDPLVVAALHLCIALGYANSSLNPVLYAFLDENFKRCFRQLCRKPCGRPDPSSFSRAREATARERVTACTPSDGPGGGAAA
Ion channel NompC, sequence (Q7T1G6 whole entry): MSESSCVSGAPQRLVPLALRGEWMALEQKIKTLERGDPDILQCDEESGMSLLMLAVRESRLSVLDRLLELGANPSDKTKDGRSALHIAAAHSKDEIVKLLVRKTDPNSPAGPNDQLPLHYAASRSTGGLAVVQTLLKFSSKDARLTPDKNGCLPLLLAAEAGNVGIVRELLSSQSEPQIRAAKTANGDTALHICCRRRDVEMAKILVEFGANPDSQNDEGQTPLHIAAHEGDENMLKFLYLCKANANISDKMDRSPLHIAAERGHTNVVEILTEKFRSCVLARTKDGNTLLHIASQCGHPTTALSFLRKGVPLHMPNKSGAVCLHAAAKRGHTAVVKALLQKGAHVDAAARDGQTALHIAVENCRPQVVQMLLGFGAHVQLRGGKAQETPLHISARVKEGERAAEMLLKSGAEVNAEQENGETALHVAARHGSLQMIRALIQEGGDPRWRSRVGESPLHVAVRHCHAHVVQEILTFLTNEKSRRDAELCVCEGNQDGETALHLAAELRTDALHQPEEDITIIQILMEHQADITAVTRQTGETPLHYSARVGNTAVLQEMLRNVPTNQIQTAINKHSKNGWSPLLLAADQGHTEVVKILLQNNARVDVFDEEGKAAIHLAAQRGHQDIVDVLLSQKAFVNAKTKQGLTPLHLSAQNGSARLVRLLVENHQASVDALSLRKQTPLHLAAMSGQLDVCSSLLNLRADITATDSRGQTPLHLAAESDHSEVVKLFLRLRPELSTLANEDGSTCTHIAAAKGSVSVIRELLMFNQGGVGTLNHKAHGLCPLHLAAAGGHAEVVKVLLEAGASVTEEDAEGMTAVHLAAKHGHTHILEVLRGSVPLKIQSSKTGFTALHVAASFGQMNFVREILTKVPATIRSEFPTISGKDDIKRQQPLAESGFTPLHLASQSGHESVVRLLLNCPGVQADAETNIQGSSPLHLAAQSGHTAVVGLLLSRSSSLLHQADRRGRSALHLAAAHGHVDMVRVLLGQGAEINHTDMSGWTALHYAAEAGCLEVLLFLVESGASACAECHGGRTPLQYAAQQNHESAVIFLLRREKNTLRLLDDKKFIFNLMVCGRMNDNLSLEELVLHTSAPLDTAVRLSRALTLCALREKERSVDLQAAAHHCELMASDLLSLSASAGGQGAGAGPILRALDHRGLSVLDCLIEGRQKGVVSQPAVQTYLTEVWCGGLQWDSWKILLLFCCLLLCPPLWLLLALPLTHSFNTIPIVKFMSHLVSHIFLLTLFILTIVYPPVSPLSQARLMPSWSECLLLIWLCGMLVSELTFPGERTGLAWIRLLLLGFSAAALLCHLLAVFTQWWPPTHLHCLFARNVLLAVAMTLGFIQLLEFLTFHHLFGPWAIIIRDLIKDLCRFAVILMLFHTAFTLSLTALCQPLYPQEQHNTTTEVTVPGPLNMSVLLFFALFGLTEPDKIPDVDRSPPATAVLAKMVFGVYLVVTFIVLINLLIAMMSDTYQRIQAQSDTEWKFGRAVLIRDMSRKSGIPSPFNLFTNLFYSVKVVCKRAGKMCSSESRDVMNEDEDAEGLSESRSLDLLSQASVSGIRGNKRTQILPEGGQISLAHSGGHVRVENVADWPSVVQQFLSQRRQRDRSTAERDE
Sphingosine 1-phosphate receptor 4, sequence (O95977 whole entry): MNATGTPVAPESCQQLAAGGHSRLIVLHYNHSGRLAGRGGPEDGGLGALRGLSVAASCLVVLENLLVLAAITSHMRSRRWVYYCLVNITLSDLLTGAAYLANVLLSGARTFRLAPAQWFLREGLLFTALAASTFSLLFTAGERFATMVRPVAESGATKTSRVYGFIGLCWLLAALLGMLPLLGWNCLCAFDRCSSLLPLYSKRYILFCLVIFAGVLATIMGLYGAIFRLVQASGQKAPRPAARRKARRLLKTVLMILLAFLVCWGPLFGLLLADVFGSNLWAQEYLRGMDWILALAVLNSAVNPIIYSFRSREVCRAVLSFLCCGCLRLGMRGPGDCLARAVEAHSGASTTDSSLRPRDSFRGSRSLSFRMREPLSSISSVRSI
Dual specificity protein phosphatase 3, sequence (P51452 whole entry): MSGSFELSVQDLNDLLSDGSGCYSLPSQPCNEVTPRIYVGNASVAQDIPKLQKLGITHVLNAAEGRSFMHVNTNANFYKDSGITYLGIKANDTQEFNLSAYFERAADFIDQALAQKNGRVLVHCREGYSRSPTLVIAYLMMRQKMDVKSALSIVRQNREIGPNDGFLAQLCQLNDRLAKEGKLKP
Beta-lactamase (Pseudomonas aeruginosa, UniProt Q79MP6), sequence (Q79MP6 whole entry): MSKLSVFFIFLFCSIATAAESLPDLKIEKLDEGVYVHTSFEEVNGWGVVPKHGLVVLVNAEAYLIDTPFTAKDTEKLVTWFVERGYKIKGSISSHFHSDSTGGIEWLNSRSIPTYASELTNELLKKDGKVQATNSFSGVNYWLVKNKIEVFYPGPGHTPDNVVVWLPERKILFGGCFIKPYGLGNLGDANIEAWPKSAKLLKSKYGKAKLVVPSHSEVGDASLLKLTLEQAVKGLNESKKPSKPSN

Broadly, the EC50 is the concentration that produces a half-maximal response. As for `CC(=O)c1ccccc1NC(=O)C(C)OC(=O)c1c(C)nn(Cc2ccccc2)c1Cl` (stereo not given), the EC50 in assay [1] is > 50 µM (inactive).
What is called IC50 is the concentration at which inhibition is half-maximal. For the compound `CCOc1ccc(NC(=S)Nc2cc(C)n[nH]2)cc1`, the IC50 is > 50 µM (inactive) in assay [2]; > 100 µM (inactive) in assay [3]; 9.41 µM (active) in [4]; > 100 µM (inactive) in assay [5]; > 100 µM (inactive) in assay [6].
`Cc1nc2ccc(S(=O)(=O)Nc3ccc(-c4nc5cccnc5s4)cc3)cc2s1`: the IC50 in [7] is > 100 µM (inactive); in [8] it was 1.6 µM (active); in [9], 0.713 µM (active).
Regarding `Cc1cccc(S(=O)(=O)NCc2ccc(C(=O)NCCN3Cc4ccccc4C3)cc2)c1`, the IC50 in assay [10] was > 20 µM (inactive); in assay [11], > 32 µM (inactive); in [12], > 32 µM (inactive); in assay [13] it was > 32 µM (inactive).
For `Cc1cc(C)n2[nH]c(=O)c(N=Nc3cccc(C(F)(F)F)c3)c2n1`, the IC50 in assay [14] was 18.7 µM (active). Besides, the results for the CC50 in assay [15] and in [16] were 20 µM (active) and 26.2 µM (active), respectively.
On to `CCCN1C(=O)c2cccc3c(N4CCCCC4)ccc(c23)C1=O`, for which the EC50 in assay [17] is 51 µM (inconclusive); in assay [19], 29.8 µM (active); in [20] it was > 9.97 µM (inactive); in assay [22] it was > 9.97 µM (not active). Further, the IC50 in [18] and in assay [21] was > 59.6 µM (inactive) in each case.
As for `O=C(CSc1nc(=O)n(CCN2CCOCC2)c2c1CCCC2)Nc1cccc([N+](=O)[O-])c1`, the EC50 in [23] was 0.631 µM (active).
With `O=C(Cc1ccccc1F)N1CCC(n2nc(-c3ccccc3)oc2=O)CC1`, the EC50 in assay [24], in assay [28] and in [30] was > 32 µM (inactive) in each case. Also, the IC50 in assay [25] was > 32 µM (inactive); in [26] it was > 32 µM (inactive); in assay [27], > 32 µM (inactive); in assay [29] it was 17.9 µM (inactive).
